Tests used:
Mus musculus [1] = assay: Analgesic activity in ICR mouse assessed as pain threshold at 0.1 umol/kg administered through oral gavage after 30 mins by tail flick method; assay type: functional
[2] = Antioxidant activity in H2O2/Fe(II)-stimulated rat PC12 cells assessed as OH radical scavenging activity measured by cell survival preincubated with compound for 1 hr measured after 14 hrs by MTT assay; assay type: functional, cell-based; conditions: pc-12
Mus musculus [3] = assay: Analgesic activity in ICR mouse assessed as pain threshold at 0.1 umol/kg administered through oral gavage after 180 mins by tail flick method; assay type: functional
Mus musculus [4] = assay: Antiinflammatory activity in ICR mouse assessed as inhibition of xylene-induced ear edema at 0.1 umol/kg, po administered 30 mins prior to xylene challenge measured after 2hrs; assay type: functional; conditions: for inhibition in vivo at 0.1 µmol/kg: Mus musculus, ICR, Ear, po
[5] = Antioxidant activity in rat PC12 cells assessed as H2O2 radical scavenging activity measured as cell survival preincubated with compound for 1 hr measured after 14 hrs by MTT assay; assay type: functional, cell-based; conditions: pc-12
Mus musculus [6] = assay: Analgesic activity in ICR mouse assessed as pain threshold at 0.1 umol/kg administered through oral gavage after 60 mins by tail flick method; assay type: functional
Mus musculus [7] = assay: Analgesic activity in ICR mouse assessed as pain threshold at 0.1 umol/kg administered through oral gavage after 150 mins by tail flick method; assay type: functional
Mus musculus [8] = assay: Analgesic activity in ICR mouse assessed as pain threshold at 0.1 umol/kg administered through oral gavage after 120 mins by tail flick method; assay type: functional
Mus musculus [9] = assay: Analgesic activity in ICR mouse assessed as pain threshold at 0.1 umol/kg administered through oral gavage after 90 mins by tail flick method; assay type: functional
[10] = Antioxidant activity in sodium nitroprusside-stimulated rat PC12 cells assessed as NO radical scavenging activity measured as cell survival preincubated with compound for 1 hr followed by addition of sodium nitroprusside for 2 measured after 14 hrs by MTT assay; assay type: functional, cell-based; conditions: pc-12
Mus musculus [11] = assay: Analgesic activity in ICR mouse assessed as pain threshold at 165 umol/kg administered through oral gavage after 180 mins by tail flick method; assay type: functional
Mus musculus [12] = assay: Analgesic activity in ICR mouse assessed as pain threshold at 165 umol/kg administered through oral gavage after 90 mins by tail flick method; assay type: functional
Mus musculus [13] = assay: Analgesic activity in ICR mouse assessed as pain threshold at 165 umol/kg administered through oral gavage after 120 mins by tail flick method; assay type: functional
Mus musculus [14] = assay: Analgesic activity in ICR mouse assessed as pain threshold at 165 umol/kg administered through oral gavage after 60 mins by tail flick method; assay type: functional
Mus musculus [15] = assay: Analgesic activity in ICR mouse assessed as pain threshold at 165 umol/kg administered through oral gavage after 30 mins by tail flick method; assay type: functional
Mus musculus [16] = assay: Analgesic activity in ICR mouse assessed as pain threshold at 165 umol/kg administered through oral gavage after 150 mins by tail flick method; assay type: functional
Mus musculus [17] = assay: Analgesic activity in ICR mouse assessed as pain threshold at 1 umol/kg administered through oral gavage after 180 mins by tail flick method; assay type: functional
Mus musculus [18] = assay: Analgesic activity in ICR mouse assessed as pain threshold at 1 umol/kg administered through oral gavage after 150 mins by tail flick method; assay type: functional
Mus musculus [19] = assay: Analgesic activity in ICR mouse assessed as pain threshold at 1 umol/kg administered through oral gavage after 120 mins by tail flick method; assay type: functional
Mus musculus [20] = assay: Analgesic activity in ICR mouse assessed as pain threshold at 1 umol/kg administered through oral gavage after 90 mins by tail flick method; assay type: functional
Mus musculus [21] = assay: Analgesic activity in ICR mouse assessed as pain threshold at 1 umol/kg administered through oral gavage after 60 mins by tail flick method; assay type: functional
Mus musculus [22] = assay: Analgesic activity in ICR mouse assessed as pain threshold at 1 umol/kg administered through oral gavage after 30 mins by tail flick method; assay type: functional

| SMILES | Activity (Mus musculus [1]) [%] | EC50 [2] [µM] | Activity (Mus musculus [3]) [%] | inhibition (INH) (Mus musculus [4]) [%] | EC50 [5] [µM] | Activity (Mus musculus [6]) [%] | Activity (Mus musculus [7]) [%] | Activity (Mus musculus [8]) [%] | Activity (Mus musculus [9]) [%] | EC50 [10] [µM] | also measured |
| --- | --- | --- | --- | --- | --- | --- | --- | --- | --- | --- | --- |
| COc1cc(O)ccc1C[C@H](NC(=O)COc1ccc(C2=[N+]([O-])C(C)(C)C(C)(C)N2[O])cc1)C(=O)N[C@@H](CCCNC(=N)N)C(=O)O | 11.37 | 22.7 | 11.24 | 29.27 | 31.3 | 16.33 | 24.12 | 27.14 | 22.47 | 8.1 |  |
| CC(=O)Oc1ccccc1C(=O)O [ASPIRIN] |  |  |  |  |  |  |  |  |  |  | Activity (Mus musculus [11]): 20.56%; Activity (Mus musculus [12]): 53.2%; Activity (Mus musculus [13]): 25.21%; Activity (Mus musculus [14]): 66.32%; inhibition in vivo at 0.1 µmol/kg (Mus musculus [4]): 49.9%; Activity (Mus musculus [15]): 33.21%; Activity (Mus musculus [16]): 15.84% |
| CC1(C)N([O])C(c2ccc(OCC(=O)N[C@@H](Cc3ccc(O)cc3)C(=O)N[C@@H](CCC(=O)O)C(=O)O)cc2)=[N+]([O-])C1(C)C | 11.1 | 22.7 | 14.22 | 32.22 | 31.3 | 13.44 | 15.11 | 13.58 | 26.41 | 8.1 |  |
| CCc1cc(O)ccc1C[C@H](NC(=O)COc1ccc(C2=[N+]([O-])C(C)(C)C(C)(C)N2[O])cc1)C(=O)N[C@@H](CCCNC(=N)N)C(=O)O | 10.78 | 22.7 | 15.04 | 30.26 | 31.3 | 17.31 | 22.34 | 22.78 | 21.89 | 8.1 |  |
| CC1(C)N([O])C(c2ccc(OCC(=O)N[C@@H](Cc3ccc(O)c(CO)c3)C(=O)N[C@@H](CCCNC(=N)N)C(=O)O)cc2)=[N+]([O-])C1(C)C | 12.12 | 22.7 | 20.14 | 31.23 | 31.3 | 19.13 | 33.56 | 25.78 | 22.37 | 8.1 |  |
| NC(N)=NCCC[C@H](NC(=O)[C@@H](N)Cc1ccc(O)cc1)C(=O)O [KYOTORPHIN] |  |  |  |  |  |  |  |  |  |  | Activity (Mus musculus [17]): 10.55%; Activity (Mus musculus [18]): 12.11%; Activity (Mus musculus [19]): 12.32%; Activity (Mus musculus [20]): 25.35%; inhibition in vivo at 0.1 µmol/kg (Mus musculus [4]): 25.9%; Activity (Mus musculus [21]): 22.78%; Activity (Mus musculus [22]): 16.08% |
| CC1(C)N([O])C(c2ccc(OCC(=O)N[C@@H](Cc3ccc(O)cc3)C(=O)N[C@@H](CCCNC(=N)N)C(=O)O)cc2)=[N+]([O-])C1(C)C | 12.53 | 22.7 | 14.45 | 40.86 | 31.3 | 18.66 | 34.14 | 40.01 | 31.45 | 8.1 |  |
